Structures can show the parent of a compound that is named as a salt. Bounds are passed on as bounds.

Usually IC50 stands for the concentration needed to halve the response being measured. Low values mean inhibition by little substance, high ones a need for much substance.

The target of the assay is human, KCNT1 (Homo sapiens (Human), UniProt Q5JUK3). In words: FLIPR Tl/K Flux Assay. Conditions: HEK293 cells stably expressing human KCNT1; Tl+ flux stimulated with EC80 of agonist Loxapine. In kind it is cell-based. Summed up: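 Inhibition values come from a Hill-equation fit of % inhibition versus log concentration, using normalized fluorescence (Fmax/Fmin) over a 160 s read. The read followed stimulation with Tl+ plus EC80 agonist loxapine after 30 min compound pre-incubation at 25 °C. Cells were KCNT1-expressing HEK293, dye-loaded 1 h in pH 7.4 HEPES/HBSS with 5 mM probenecid.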
human, KCNT1, sequence (Q5JUK3 whole entry): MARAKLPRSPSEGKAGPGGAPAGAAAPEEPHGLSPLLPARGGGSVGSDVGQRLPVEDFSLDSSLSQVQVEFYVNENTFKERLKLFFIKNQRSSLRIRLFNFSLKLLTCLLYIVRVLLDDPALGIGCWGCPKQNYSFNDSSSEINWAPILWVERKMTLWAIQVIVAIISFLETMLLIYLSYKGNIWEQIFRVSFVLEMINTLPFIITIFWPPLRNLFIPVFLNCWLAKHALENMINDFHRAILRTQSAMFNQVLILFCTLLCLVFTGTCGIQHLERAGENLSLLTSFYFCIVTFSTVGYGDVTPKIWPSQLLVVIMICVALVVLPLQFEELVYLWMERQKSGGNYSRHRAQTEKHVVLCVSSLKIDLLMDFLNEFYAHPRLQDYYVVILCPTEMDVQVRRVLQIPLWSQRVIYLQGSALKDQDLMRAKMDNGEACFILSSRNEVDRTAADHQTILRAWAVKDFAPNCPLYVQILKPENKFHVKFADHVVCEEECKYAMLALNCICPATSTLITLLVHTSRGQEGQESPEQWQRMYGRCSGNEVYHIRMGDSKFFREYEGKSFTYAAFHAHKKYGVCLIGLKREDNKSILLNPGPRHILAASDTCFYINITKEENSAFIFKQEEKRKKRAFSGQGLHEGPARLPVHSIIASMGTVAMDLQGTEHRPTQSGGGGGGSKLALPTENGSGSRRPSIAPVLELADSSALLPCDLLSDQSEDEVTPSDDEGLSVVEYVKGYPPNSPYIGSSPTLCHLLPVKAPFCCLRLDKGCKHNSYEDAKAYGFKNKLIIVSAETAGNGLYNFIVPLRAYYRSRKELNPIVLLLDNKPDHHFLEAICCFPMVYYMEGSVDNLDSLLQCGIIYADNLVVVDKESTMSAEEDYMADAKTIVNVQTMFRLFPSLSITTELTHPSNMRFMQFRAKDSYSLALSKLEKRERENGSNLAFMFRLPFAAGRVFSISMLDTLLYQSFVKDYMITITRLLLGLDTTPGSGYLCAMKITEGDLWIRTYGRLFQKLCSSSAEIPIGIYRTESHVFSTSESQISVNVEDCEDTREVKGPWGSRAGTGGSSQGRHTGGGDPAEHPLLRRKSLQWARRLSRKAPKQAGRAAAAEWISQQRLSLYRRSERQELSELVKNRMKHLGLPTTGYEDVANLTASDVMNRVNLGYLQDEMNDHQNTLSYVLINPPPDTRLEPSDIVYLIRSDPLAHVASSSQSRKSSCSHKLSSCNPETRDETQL
With `O=C(N[C@H]1CCCc2oc(-c3ccnc(C(F)(F)F)c3)nc21)c1cccc(C(F)(F)F)c1` [Compound I-251a, (S)-3-(Trifluoromethyl)-N-(2-(2-(trifluoromethyl)pyridin-4-yl)-4,5,6,7-tetrahydrobenzo[d]oxazol-4-yl)benzamide], the IC50 is less than 0.25 µM.

The compound `CCOc1cc(-c2cc3n(n2)CCC[C@@H]3NC(=O)c2cc(F)cc(C#N)c2)ccn1` [Compound I-252a, (S)-3-Cyano-N-(2-(2-ethoxypyridin-4-yl)-4,5,6,7-tetrahydropyrazolo[1,5-a]pyridin-4-yl)-5-fluorobenzamide] returned a half-inhibitory concentration (IC50) of less than 0.25 µM.

`COc1cc(-c2cc3n(n2)CC[C@@H]3NC(=O)c2cc(F)cc(Cl)c2)ccn1` [Compound I-253a, (S)-3-Chloro-5-fluoro-N-(2-(2-methoxypyridin-4-yl)-5,6-dihydro-4H-pyrrolo[1,2-b]pyrazol-4-yl)benzamide] returned an IC50 of less than 0.25 µM.

`CCOc1cc(-c2cc3n(n2)CC[C@@H]3NC(=O)c2cc(C(F)(F)F)nn2C)ccn1` [Compound I-254a, (S)-N-(2-(2-Ethoxypyridin-4-yl)-5,6-dihydro-4H-pyrrolo[1,2-b]pyrazol-4-yl)-1-methyl-3-(trifluoromethyl)-1H-pyrazole-5-carboxamide] gave an IC50 of less than 0.25 µM.

`COc1cc(-c2cc3n(n2)CC[C@@H]3NC(=O)c2cnn(C(F)(F)F)c2)ccn1` [Compound I-255a, (S)-N-(2-(2-Methoxypyridin-4-yl)-5,6-dihydro-4H-pyrrolo[1,2-b]pyrazol-4-yl)-1-(trifluoromethyl)-1H-pyrazole-4-carboxamide] displayed an IC50 of less than 0.25 µM.

In turn, `COc1cc(-c2cc3n(n2)CCCC[C@@H]3NC(=O)c2ccc(F)c(C#N)c2)ccn1` [Compound I-256a, (S)-3-Cyano-4-fluoro-N-(2-(2-methoxypyridin-4-yl)-5,6,7,8-tetrahydro-4H-pyrazolo[1,5-a]azepin-4-yl)benzamide] registered a concentration for half-maximal inhibition (IC50) of less than 0.25 µM.

Consider `COc1cc(-c2cc3n(n2)CC[C@@H]3NC(=O)c2ccc(F)c(C#N)c2)ccn1` [Compound I-257a, (S)-3-Cyano-4-fluoro-N-(2-(2-methoxypyridin-4-yl)-5,6-dihydro-4H-pyrrolo[1,2-b]pyrazol-4-yl)benzamide], for which the IC50 is less than 0.25 µM.

Turning to `COc1cc(C#N)cc(C(=O)N[C@H]2CCn3nc(-c4ccnc(C(F)(F)F)c4)cc32)c1` [Compound I-258a, (S)-3-Cyano-5-methoxy-N-(2-(2-(trifluoromethyl)pyridin-4-yl)-5,6-dihydro-4H-pyrrolo[1,2-b]pyrazol-4-yl)benzamide], the IC50 is less than 0.25 µM.

Compound `COc1cc(-n2cc3c(n2)CC[C@@H]3NC(=O)c2ccc(F)c(C#N)c2)ccn1` [Compound I-259a, (S)-3-Cyano-4-fluoro-N-(2-(2-methoxypyridin-4-yl)-2,4,5,6-tetrahydrocyclopenta[c]pyrazol-4-yl)benzamide] yielded a half-inhibitory concentration (IC50) of less than 0.25 µM.

Take `COc1cc(-c2nc3n(n2)CCC[C@@H]3NC(=O)c2cc(C(F)(F)F)nn2C)ccn1` [Compound I-260a, (S)—N-(2-(2-Methoxypyridin-4-yl)-5,6,7,8-tetrahydro-[1,2,4]triazolo[1,5-a]pyridin-8-yl)-1-methyl-3-(trifluoromethyl)-1H-pyrazole-5-carboxamide]: the IC50 was 0.25 to 0.5 µM.

In turn, `CC(F)(F)c1cc(-c2cc3n(n2)CC[C@@H]3NC(=O)c2cccc(C#N)c2)ccn1` [Compound I-261a, (S)-3-Cyano-N-(2-(2-(1,1-difluoroethyl)pyridin-4-yl)-5,6-dihydro-4H-pyrrolo[1,2-b]pyrazol-4-yl)benzamide] returned an IC50 of less than 0.25 µM.

`N#Cc1cc(F)cc(C(=O)N[C@H]2CCCn3nc(-c4ccnc(C5CC5)c4)cc32)c1` [Compound I-262a] returned an IC50 of less than 0.25 µM.

For `N#Cc1cccc(C(=O)N[C@H]2CCCCn3cc(-c4ccnc(C(F)(F)F)c4)cc32)c1` [Compound I-263a, (S)-3-Cyano-N-(2-(2-(trifluoromethyl)pyridin-4-yl)-6,7,8,9-tetrahydro-5H-pyrrolo[1,2-a]azepin-9-yl)benzamide], the half-maximal inhibitory concentration (IC50) is less than 0.25 µM.

For the compound `CCOc1cc(C(=O)N[C@H]2CCn3nc(-c4ccnc(C(F)(F)F)c4)cc32)ccn1` [Compound I-264a], the IC50 is less than 0.25 µM.

`N#Cc1cc(F)cc(C(=O)N[C@H]2CCCCn3nc(-c4ccnc(C5CC5)c4)cc32)c1` [Compound I-265a, (S)-3-Cyano-N-(2-(2-cyclopropylpyridin-4-yl)-5,6,7,8-tetrahydro-4H-pyrazolo[1,5-a]azepin-4-yl)-5-fluorobenzamide]: the IC50 was less than 0.25 µM.

On to `N#Cc1cc(C(=O)N[C@H]2CCn3nc(-c4ccnc(C(F)(F)F)c4)cc32)ccc1F` [Compound I-266a, (S)-3-Cyano-4-fluoro-N-(2-(2-(trifluoromethyl)pyridin-4-yl)-5,6-dihydro-4H-pyrrolo[1,2-b]pyrazol-4-yl)benzamide], for which the IC50 was less than 0.25 µM.

`N#Cc1cc(C(=O)N[C@H]2CCc3nn(-c4ccnc(C(F)(F)F)c4)cc32)ccc1F` [Compound I-267a, (S)-3-Cyano-4-fluoro-N-(2-(2-(trifluoromethyl)pyridin-4-yl)-2,4,5,6-tetrahydrocyclopenta[c]pyrazol-4-yl)benzamide] came in with an IC50 of less than 0.25 µM.

Regarding `COc1cc(C(=O)N[C@H]2CCCCn3nc(-c4ccnc(C(C)(F)F)c4)cc32)ccn1` [Compound I-273a], the IC50 is less than 0.25 µM.

`CC(F)(F)c1cc(-n2cc3c(n2)CC[C@@H]3NC(=O)c2cccc(C#N)c2)ccn1` [Compound I-274a, (S)-3-Cyano-N-(2-(2-(1,1-difluoroethyl)pyridin-4-yl)-2,4,5,6-tetrahydrocyclopenta[c]pyrazol-4-yl)benzamide] came in with an IC50 of less than 0.25 µM.

Consider `COc1cc(-c2nc3c(o2)CCC[C@@H]3NC(=O)c2cc(F)cc(C#N)c2)ccn1` [Compound I-275a], for which the IC50 is less than 0.25 µM.

`N#Cc1cc(C(=O)N[C@H]2CCCCn3nc(-c4ccnc(C(F)(F)F)c4)cc32)ccc1F` [Compound I-277a, (S)-3-Cyano-4-fluoro-N-(2-(2-(trifluoromethyl)pyridin-4-yl)-5,6,7,8-tetrahydro-4H-pyrazolo[1,5-a]azepin-4-yl)benzamide]: the IC50 is less than 0.25 µM.

Consider `N#Cc1ccc(F)c(C(=O)N[C@H]2CCCn3nc(-c4ccnc(C(F)(F)F)c4)cc32)c1` [Compound I-278a, (S)-5-Cyano-2-fluoro-N-(2-(2-(trifluoromethyl)pyridin-4-yl)-4,5,6,7-tetrahydropyrazolo[1,5-a]pyridin-4-yl)benzamide], for which the IC50 is less than 0.25 µM.

In turn, `O=C(N[C@H]1CCn2nc(-c3ccnc(C4CC4)c3)cc21)c1cc2cccnn2c1` [Compound I-279a, (S)-N-(2-(2-Cyclopropylpyridin-4-yl)-5,6-dihydro-4H-pyrrolo[1,2-b]pyrazol-4-yl)pyrrolo[1,2-b]pyridazine-6-carboxamide] displayed an IC50 of less than 0.25 µM.

The compound `Cc1cnc(C(F)(F)F)cc1-c1cc2n(n1)CCCC[C@@H]2NC(=O)c1cccc(C#N)c1` [Compound I-280a, (S)-3-Cyano-N-(2-(5-methyl-2-(trifluoromethyl)pyridin-4-yl)-5,6,7,8-tetrahydro-4H-pyrazolo[1,5-a]azepin-4-yl)benzamide] displayed a concentration for half-maximal inhibition (IC50) of less than 0.25 µM.

Compound `Cc1cc(C#N)cc(C(=O)N[C@H]2CCCn3nc(-c4ccnc(C5CC5)c4)cc32)c1` [Compound I-281a, (S)-3-Cyano-N-(2-(2-cyclopropylpyridin-4-yl)-4,5,6,7-tetrahydropyrazolo[1,5-a]pyridin-4-yl)-5-methylbenzamide TFA salt] returned an IC50 of less than 0.25 µM.

The compound `CCOc1cc(C(=O)N[C@H]2CCCn3nc(-c4ccnc(C(F)(F)F)c4)cc32)ccn1` [Compound I-282a, (S)-2-Ethoxy-N-(2-(2-(trifluoromethyl)pyridin-4-yl)-4,5,6,7-tetrahydropyrazolo[1,5-a]pyridin-4-yl)isonicotinamide] returned a 50% inhibitory concentration (IC50) of less than 0.25 µM.

Compound `CCOc1cc(C(=O)N[C@H]2CCCCn3nc(-c4ccnc(C(F)(F)F)c4)cc32)ccn1` [Compound I-283a, (S)-2-Ethoxy-N-(2-(2-(trifluoromethyl)pyridin-4-yl)-5,6,7,8-tetrahydro-4H-pyrazolo[1,5-a]azepin-4-yl)isonicotinamide] returned a half-inhibitory concentration (IC50) of less than 0.25 µM.

With `COc1cc(-c2cc3n(n2)CCC[C@@H]3NC(=O)c2cc(C#N)cc(C(F)(F)F)c2)ccn1` [Compound I-284a, (S)-3-Cyano-N-(2-(2-methoxypyridin-4-yl)-4,5,6,7-tetrahydropyrazolo[1,5-a]pyridin-4-yl)-5-(trifluoromethyl)benzamide], the concentration for half-maximal inhibition (IC50) was less than 0.25 µM.

For `COc1cc(-c2cc3n(n2)CC[C@@H]3NC(=O)c2cc(C#N)cc(C(F)(F)F)c2)ccn1` [Compound I-285a, (S)-3-Cyano-N-(2-(2-methoxypyridin-4-yl)-5,6-dihydro-4H-pyrrolo[1,2-b]pyrazol-4-yl)-5-(trifluoromethyl)benzamide], the IC50 was less than 0.25 µM.

Consider `COc1cc(-c2cc3n(n2)CC[C@@H]3NC(=O)c2cccc(C(F)(F)F)c2)ccn1` [Compound I-286a, (S)-N-(2-(2-Methoxypyridin-4-yl)-5,6-dihydro-4H-pyrrolo[1,2-b]pyrazol-4-yl)-3-(trifluoromethyl)benzamide], for which the 50% inhibitory concentration (IC50) was less than 0.25 µM.

In the case of `COc1cc(-c2cc3n(n2)CCC[C@@H]3NC(=O)c2cc(F)cc(C(F)(F)F)c2)ccn1` [Compound I-287a, (S)-3-Fluoro-N-(2-(2-methoxypyridin-4-yl)-4,5,6,7-tetrahydropyrazolo[1,5-a]pyridin-4-yl)-5-(trifluoromethyl)benzamide], the IC50 is less than 0.25 µM.

Consider `N#Cc1cc(C(=O)N[C@H]2CCn3nc(-c4ccnc(C(F)(F)F)c4)cc32)cc(C(F)(F)F)c1` [Compound I-288a, (S)-3-Cyano-5-(trifluoromethyl)-N-(2-(2-(trifluoromethyl)pyridin-4-yl)-5,6-dihydro-4H-pyrrolo[1,2-b]pyrazol-4-yl)benzamide], for which the IC50 was less than 0.25 µM.
